According to US20080199527A1, “Enteric Coated Azithromycin Multiparticulates” (Pfizer Inc., priority 2004, published 2008):

Assay: Reactivity of enteric coating materials with azithromycin: ester formation in 50/50 mixtures, LC/MS
Type: physicochemical
Conditions: 50/50 (w/w) mixture of azithromycin and material, 50° C. and 20% RH
Procedure: The reactivity of the materials useful for forming enteric coatings listed in Table 1 with azithromycin was determined as follows. […] (CAT), and triacetin, were prepared by adding equal weights of azithromycin and the material to a mortar and mixing with a spatula. […] Azithromycin esters were identified in each of the mixtures by LC/MS detection. […] The sample solutions were then filtered with a 0.45 μm nylon syringe filter. The sample solutions were then analyzed by HPLC using a Hypersil BDS C18 4.6 mm×250 mm (5 μm) HPLC column on a Hewlett Packard HP1100 liquid chromatograph. The mobile phase employed for sample elution was a gradient of isopropyl alcohol and 25 mM ammonium acetate buffer (pH approximately 7) as follows: initial conditions of 50/50 (v/v) isopropyl alcohol/ammonium acetate; the isopropyl alcohol percentage was then increased to 100% over 30 minutes and held at 100% for an additional 15 minutes. The flow rate was 0.80 mL/min. The method used a 75 μL injection volume and a 43° C. column temperature. A Finnigan LCQ Classic mass spectrometer was used for detection. […] Azithromycin ester values were calculated from the MS peak areas based on an external azithromycin standard. […] The results of this analysis are shown below as are the measured rates of ester formation (Re) at 50° C.

With `CC(=O)OCC(COC(C)=O)OC(C)=O` [Triacetin, triacetin] the “Re at 50° C. (rate of ester formation)” value was 6.5 × 10^−2 wt %/day and the “Concentration of Azithromycin Esters” value (storage time 10 days) was 0.65 wt %.
